{"source": "patent US20010001064A1", "about": "“Flow electroporation chamber and methods of use thereof” (priority 1998, published 2001)", "origin": "cited, not measured here", "key": {"hemoglobin [1]": {"biological_target": "T1, hemoglobin (Homo sapiens, UniProt P68871+P69905)", "T1 sequence (P69905 2-142 limits assumed)": "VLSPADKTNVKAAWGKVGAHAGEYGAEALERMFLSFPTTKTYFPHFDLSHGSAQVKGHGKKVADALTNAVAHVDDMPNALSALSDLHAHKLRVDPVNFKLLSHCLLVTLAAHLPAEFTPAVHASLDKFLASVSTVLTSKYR", "T1 sequence (P68871 2-147 limits assumed)": "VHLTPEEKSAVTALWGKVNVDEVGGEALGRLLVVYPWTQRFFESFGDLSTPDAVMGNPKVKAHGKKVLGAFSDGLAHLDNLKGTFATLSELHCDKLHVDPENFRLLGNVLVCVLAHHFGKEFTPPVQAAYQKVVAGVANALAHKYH", "conditions": "relative to DPG"}, "hemoglobin [2]": {"biological_target": "T1, hemoglobin", "conditions": "pH 7.4, 37 degrees C."}}}
{"molecule": "O=P(O)(O)O[C@H]1[C@H](OP(=O)(O)O)[C@@H](OP(=O)(O)O)[C@H](OP(=O)(O)O)[C@@H](OP(=O)(O)O)[C@H]1OP(=O)(O)O", "note": "[IHP, inositol hexaphosphate]", "values": [{"measurement": "affinity to hemoglobin, higher than DPG", "setting": "hemoglobin [1]", "value": 1000, "unit": "fold"}, {"measurement": "P50 of hemoglobin", "setting": "hemoglobin [2]", "value": "≤ 96.4", "unit": "mm Hg"}]}
